In patent US20150217046A1, “DOSING REGIMENS FOR SUBCUTANEOUSLY INFUSIBLE ACIDIC COMPOSITIONS” (SynAgile Corporation, priority 2012, published 2015):

Key:
[1] = Swelling/induration and histopathology after continuous subcutaneous infusion (Example 1); assay type: in vivo, Yucatan minipigs; conditions: for microscopic changes at infused site: pH 4.6
Description: The pharmaceutical compositions were citrate buffered at pH 4.6 where most, but not all, of the LDEE is in the salt form, i.e., there is also some free base.

[2] = Infusion site reactions, intermittent subcutaneous infusion of 200 mg/mL LDEE pH 4.5 (Example 2); assay type: in vivo, minipigs
Description: Each infusion site was spaced a minimum of 2.5 inches (6.3 cm) apart from any other infusion site.
In all cases, the infusion site reaction constituted a swelling of 0.5-4.0 cm diameter, typically 0.5-1.5 cm.

[3] = Infusion site reactions, intermittent subcutaneous infusion of 100 and 200 mg/mL LDEE pH 3.7 (Example 4); conditions: for infusion site reactions, doses pooled: 14 days post-infusion
Description: Each infusion site was spaced a minimum of 2 inches (5 cm) apart from any other infusion site.

[4] = Infusion site reactions, continuous subcutaneous infusion of 100 mg/mL LDEE pH 3.7 (Example 5); assay type: in vivo, minipigs; conditions: for Fraction of sites with a reaction (firmness): pH 3.7, 100 mg/mL (0.44M) LDEE, continuous s.c. 8 h, 280 mg per site, N = 15 infusions
Description: The 5.6 mL volume was divided between two simultaneously infused sites, each site receiving 2.8 mL, i.e., 280 mg LDEE. At each site the flow rate was 0.35 mL/hour, i.e. 35 mg LDEE/hour was infused. The number of sites infused on the first day totaled in the four minipigs 8, and was 7 on the 8th day, because of dislodgement of a cannula from one site. The total number of infused sites was 15.

SMILES: CCOC(=O)[C@@H](N)Cc1ccc(O)c(O)c1 [LDEE, levodopa ethyl ester]
- swelling/induration of infused sites ([1]; 1,142 mg LDEE over 16 hours continuous s.c., 326 mg/mL and 220 mg/mL, citrate buffered pH 4.6): Most, but not all, of the infused sites were swollen and/or developed firm indurations
- microscopic changes at infused site ([1]; one month after infusion of 328 mg LDEE/mL (1.45 M)): mild to moderate granulomatous inflammation of the panniculus
- microscopic changes at infused site ([1]; one week after infusion of 220 mg LDEE per mL (0.98 M)): mild thrombus formation in the blood vessels of the panniculus, with minimal hemorrhage and subacute inflammation
- microscopic changes at infused site ([1]; three weeks after infusion of 220 mg LDEE per mL (0.98 M), minipig A): minimal hemorrhage of the dermis and panniculus
- microscopic changes at infused site ([1]; three weeks after infusion of 220 mg LDEE per mL (0.98 M), minipig B): mild granulomatous inflammation
- diameter of swelling (infusion site reaction) ([2]; 200 mg/mL (0.89 M) LDEE pH 4.5, 140 mg, intermittent s.c., typically 0.5-1.5 cm): 0.5-4.0 cm
- rate of small granuloma formation ([2]; 200 mg/mL (0.89M) LDEE pH 4.5, 140 mg, 14 days post-infusion): 33%
- infusion site reactions ([2]; 200 mg/mL (0.89 M) LDEE pH 4.5, 14-15 days post-infusion): 8 out of 24
- infusion site reactions, doses pooled ([3]; 100 mg/mL LDEE pH 3.7): 0 out of 16
- infusion site reactions, doses pooled ([3]; 200 mg/mL LDEE pH 3.7): 5 out of 16
- tolerability of infused volume per site ([3]; LDEE pH 3.7, volumes between 0.094 and 0.37 mL per hour per site): well tolerated
- # of Infusion Site Reactions/# of Infusion Sites ([3]; pH 3.7, intermittent s.c. (35 min non-delivery), 100 mg/mL, 563 mg, 16 hrs, 0 hrs): 0/4
- # of Infusion Site Reactions/# of Infusion Sites ([3]; pH 3.7, intermittent s.c. (35 min non-delivery), 100 mg/mL, 563 mg, 16 hrs, 12 hrs): 0/4
- # of Infusion Site Reactions/# of Infusion Sites ([3]; pH 3.7, intermittent s.c. (35 min non-delivery), 100 mg/mL, 563 mg, 16 hrs, 24 hrs): 2/4
- # of Infusion Site Reactions/# of Infusion Sites ([3]; pH 3.7, intermittent s.c. (35 min non-delivery), 100 mg/mL, 563 mg, 16 hrs, 3 days): 3/4
- # of Infusion Site Reactions/# of Infusion Sites ([3]; pH 3.7, intermittent s.c. (35 min non-delivery), 100 mg/mL, 563 mg, 16 hrs, 7 days): 3/4
- # of Infusion Site Reactions/# of Infusion Sites ([3]; pH 3.7, intermittent s.c. (35 min non-delivery), 100 mg/mL, 563 mg, 16 hrs, 14 days): 0/4
- # of Infusion Site Reactions/# of Infusion Sites ([3]; pH 3.7, intermittent s.c., 100 mg/mL, 140 mg, 8 hrs, 0 hrs): 0/8
- # of Infusion Site Reactions/# of Infusion Sites ([3]; pH 3.7, intermittent s.c., 100 mg/mL, 140 mg, 8 hrs, 12 hrs): 0/8
- # of Infusion Site Reactions/# of Infusion Sites ([3]; pH 3.7, intermittent s.c., 100 mg/mL, 140 mg, 8 hrs, 24 hrs): 0/8
- # of Infusion Site Reactions/# of Infusion Sites ([3]; pH 3.7, intermittent s.c., 100 mg/mL, 140 mg, 8 hrs, 3 days): 3/8
- # of Infusion Site Reactions/# of Infusion Sites ([3]; pH 3.7, intermittent s.c., 100 mg/mL, 140 mg, 8 hrs, 7 days): 1/8
- # of Infusion Site Reactions/# of Infusion Sites ([3]; pH 3.7, intermittent s.c., 100 mg/mL, 140 mg, 8 hrs, 14 days): 0/8
- # of Infusion Site Reactions/# of Infusion Sites ([3]; pH 3.7, intermittent s.c., 100 mg/mL, 282 mg, 16 hrs, 0 hrs): 0/4
- # of Infusion Site Reactions/# of Infusion Sites ([3]; pH 3.7, intermittent s.c., 100 mg/mL, 282 mg, 16 hrs, 12 hrs): 0/4
- # of Infusion Site Reactions/# of Infusion Sites ([3]; pH 3.7, intermittent s.c., 100 mg/mL, 282 mg, 16 hrs, 24 hrs): 1/4
- # of Infusion Site Reactions/# of Infusion Sites ([3]; pH 3.7, intermittent s.c., 100 mg/mL, 282 mg, 16 hrs, 3 days): 1/4
- # of Infusion Site Reactions/# of Infusion Sites ([3]; pH 3.7, intermittent s.c., 100 mg/mL, 282 mg, 16 hrs, 7 days): 0/4
- # of Infusion Site Reactions/# of Infusion Sites ([3]; pH 3.7, intermittent s.c., 100 mg/mL, 282 mg, 16 hrs, 14 days): 0/4
- # of Infusion Site Reactions/# of Infusion Sites ([3]; pH 3.7, intermittent s.c., 200 mg/mL, 140 mg, 8 hrs, 0 hrs): 0/8
- # of Infusion Site Reactions/# of Infusion Sites ([3]; pH 3.7, intermittent s.c., 200 mg/mL, 140 mg, 8 hrs, 12 hrs): 0/8
- # of Infusion Site Reactions/# of Infusion Sites ([3]; pH 3.7, intermittent s.c., 200 mg/mL, 140 mg, 8 hrs, 24 hrs): 0/8
- # of Infusion Site Reactions/# of Infusion Sites ([3]; pH 3.7, intermittent s.c., 200 mg/mL, 140 mg, 8 hrs, 3 days): 3/8
- # of Infusion Site Reactions/# of Infusion Sites ([3]; pH 3.7, intermittent s.c., 200 mg/mL, 140 mg, 8 hrs, 7 days): 3/8
- # of Infusion Site Reactions/# of Infusion Sites ([3]; pH 3.7, intermittent s.c., 200 mg/mL, 140 mg, 8 hrs, 14 days): 2/8
- # of Infusion Site Reactions/# of Infusion Sites ([3]; pH 3.7, intermittent s.c., 200 mg/mL, 282 mg, 16 hrs, 0 hrs): 0/4
- # of Infusion Site Reactions/# of Infusion Sites ([3]; pH 3.7, intermittent s.c., 200 mg/mL, 282 mg, 16 hrs, 12 hrs): 0/4
- # of Infusion Site Reactions/# of Infusion Sites ([3]; pH 3.7, intermittent s.c., 200 mg/mL, 282 mg, 16 hrs, 24 hrs): 0/4
- # of Infusion Site Reactions/# of Infusion Sites ([3]; pH 3.7, intermittent s.c., 200 mg/mL, 282 mg, 16 hrs, 3 days): 2/4
- # of Infusion Site Reactions/# of Infusion Sites ([3]; pH 3.7, intermittent s.c., 200 mg/mL, 282 mg, 16 hrs, 7 days): 2/4
- # of Infusion Site Reactions/# of Infusion Sites ([3]; pH 3.7, intermittent s.c., 200 mg/mL, 282 mg, 16 hrs, 14 days): 1/4
- # of Infusion Site Reactions/# of Infusion Sites ([3]; pH 3.7, intermittent s.c., 200 mg/mL, 563 mg, 16 hrs, 0 hrs): 0/4
- # of Infusion Site Reactions/# of Infusion Sites ([3]; pH 3.7, intermittent s.c., 200 mg/mL, 563 mg, 16 hrs, 12 hrs): 0/4
- # of Infusion Site Reactions/# of Infusion Sites ([3]; pH 3.7, intermittent s.c., 200 mg/mL, 563 mg, 16 hrs, 24 hrs): 0/4
- # of Infusion Site Reactions/# of Infusion Sites ([3]; pH 3.7, intermittent s.c., 200 mg/mL, 563 mg, 16 hrs, 3 days): 3/4
- # of Infusion Site Reactions/# of Infusion Sites ([3]; pH 3.7, intermittent s.c., 200 mg/mL, 563 mg, 16 hrs, 7 days): 3/4
- # of Infusion Site Reactions/# of Infusion Sites ([3]; pH 3.7, intermittent s.c., 200 mg/mL, 563 mg, 16 hrs, 14 days): 2/4
- diameter of reactions (slightly raised and firm) ([4]; 100 mg/mL (0.44 M) LDEE pH 3.7, continuous s.c. 8 h, 0.35 mL/hour per site): about 1 cm
- fraction of sites with reactions ([4]; 100 mg/mL (0.44 M) LDEE pH 3.7, dose divided between two continuously infused sites): 1/15
- Fraction of sites with a reaction (firmness) ([4]; 0 hrs after end of infusion): 0.067
- Fraction of sites with a reaction (firmness) ([4]; 12 hrs after end of infusion): 0.067
- Fraction of sites with a reaction (firmness) ([4]; 24 hrs after end of infusion): 0.067
- Fraction of sites with a reaction (firmness) ([4]; 3 days after end of infusion): 0.067
